According to paper PMC7156458, “Synthetic biology based construction of biological activity-related library of fungal decalin-containing diterpenoid pyrones” (Nature Communications, 2020):

Molecular target: Aβ42 (Homo sapiens, UniProt P05067)
Assay: Th-T (thioflavin-T) assay of Aβ42 aggregation
Format: biochemical
Conditions: for Th-T assay plate reading, mean of three wells (Supplementary Fig. 47): source data, Ab alone and No Ab as controls

Chain of Aβ42 (P05067 672-713): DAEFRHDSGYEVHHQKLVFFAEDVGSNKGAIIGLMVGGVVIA

C=C1CCC2C(C)(CC(=O)C=C(C)C)C(O)CCC2(C)C1Cc1c(OC)oc(CO)c(C)c1=O (centres unmarked) [Compound 19]
Th-T fluorescence, mean of three wells (Aβ42 aggregation time course, reading M117): 3.6075
Th-T fluorescence, mean of three wells (Aβ42 aggregation time course, reading M118): 3.626
Th-T fluorescence, mean of three wells (Aβ42 aggregation time course, reading M119): 3.587
Th-T fluorescence, mean of three wells (Aβ42 aggregation time course, reading M120): 3.625
Th-T fluorescence, mean of three wells (Aβ42 aggregation time course, reading M121): 3.6213
Th-T fluorescence, mean of three wells (Aβ42 aggregation time course, reading M122): 3.6222
Th-T fluorescence, mean of three wells (Aβ42 aggregation time course, reading M123): 3.606
Th-T fluorescence, mean of three wells (Aβ42 aggregation time course, reading M124): 3.5846
Th-T fluorescence, mean of three wells (Aβ42 aggregation time course, reading M125): 3.61
Th-T fluorescence, mean of three wells (Aβ42 aggregation time course, reading M126): 3.596
Th-T fluorescence, mean of three wells (Aβ42 aggregation time course, reading M127): 3.587
Th-T fluorescence, mean of three wells (Aβ42 aggregation time course, reading M128): 3.613
Th-T fluorescence, mean of three wells (Aβ42 aggregation time course, reading M129): 3.627
Th-T fluorescence, mean of three wells (Aβ42 aggregation time course, reading M130): 3.59
Th-T fluorescence, mean of three wells (Aβ42 aggregation time course, reading M131): 3.596
Th-T fluorescence, mean of three wells (Aβ42 aggregation time course, reading M132): 3.652
Th-T fluorescence, mean of three wells (Aβ42 aggregation time course, reading M133): 3.618
Th-T fluorescence, mean of three wells (Aβ42 aggregation time course, reading M134): 3.586
Th-T fluorescence, mean of three wells (Aβ42 aggregation time course, reading M135): 3.587
Th-T fluorescence, mean of three wells (Aβ42 aggregation time course, reading M136): 3.617
Th-T fluorescence, mean of three wells (Supplementary Fig. 47, reading M137): 3.599
Th-T fluorescence, mean of three wells (Supplementary Fig. 47, reading M138): 3.596
Th-T fluorescence, mean of three wells (Supplementary Fig. 47, reading M139): 3.59
Th-T fluorescence, mean of three wells (Supplementary Fig. 47, reading M140): 3.5958
Th-T fluorescence, mean of three wells (Supplementary Fig. 47, reading M141): 3.577
Th-T fluorescence, mean of three wells (Supplementary Fig. 47, reading M142): 3.567
Th-T fluorescence, mean of three wells (Supplementary Fig. 47, reading M143): 3.559
Th-T fluorescence, mean of three wells (Supplementary Fig. 47, reading M144): 3.573
Th-T fluorescence, mean of three wells (Supplementary Fig. 47, reading M145): 3.546
Th-T fluorescence, mean of three wells (Supplementary Fig. 47 source data, measurement M37 of time course): 3.411
Th-T fluorescence, mean of three wells (Supplementary Fig. 47 source data, measurement M38 of time course): 3.42
Th-T fluorescence, mean of three wells (Supplementary Fig. 47 source data, measurement M39 of time course): 3.449
Th-T fluorescence, mean of three wells (Supplementary Fig. 47 source data, measurement M40 of time course): 3.484
Th-T fluorescence, mean of three wells (Supplementary Fig. 47 source data, measurement M41 of time course): 3.495
Th-T fluorescence, mean of three wells (Supplementary Fig. 47 source data, measurement M42 of time course): 3.511
Th-T fluorescence, mean of three wells (Supplementary Fig. 47 source data, measurement M43 of time course): 3.5042
Th-T fluorescence, mean of three wells (Supplementary Fig. 47 source data, measurement M44 of time course): 3.529
Th-T fluorescence, mean of three wells (Supplementary Fig. 47 source data, measurement M45 of time course): 3.546
Th-T fluorescence, mean of three wells (Supplementary Fig. 47 source data, measurement M46 of time course): 3.545
Th-T fluorescence, mean of three wells (Supplementary Fig. 47 source data, measurement M47 of time course): 3.542
Th-T fluorescence, mean of three wells (Supplementary Fig. 47 source data, measurement M48 of time course): 3.567
Th-T fluorescence, mean of three wells (Supplementary Fig. 47 source data, measurement M49 of time course): 3.564
Th-T fluorescence, mean of three wells (Supplementary Fig. 47 source data, measurement M50 of time course): 3.566
Th-T fluorescence, mean of three wells (Supplementary Fig. 47 source data, measurement M51 of time course): 3.621
Th-T fluorescence, mean of three wells (Supplementary Fig. 47 source data, measurement M52 of time course): 3.57
Th-T fluorescence, mean of three wells (Supplementary Fig. 47 source data, measurement M53 of time course): 3.596
Th-T fluorescence, mean of three wells (Supplementary Fig. 47 source data, measurement M54 of time course): 3.5732
Th-T fluorescence, mean of three wells (Supplementary Fig. 47 source data, measurement M55 of time course): 3.592
Th-T fluorescence, mean of three wells (Supplementary Fig. 47 source data, measurement M56 of time course): 3.662
Th-T assay plate reading, mean of three wells (Supplementary Fig. 47) (measurement M1): 0.2658
Th-T assay plate reading, mean of three wells (Supplementary Fig. 47) (measurement M2): 0.2823
Th-T assay plate reading, mean of three wells (Supplementary Fig. 47) (measurement M3): 0.3173
Th-T assay plate reading, mean of three wells (Supplementary Fig. 47) (measurement M4): 0.3889
Th-T assay plate reading, mean of three wells (Supplementary Fig. 47) (measurement M5): 0.4637
Th-T assay plate reading, mean of three wells (Supplementary Fig. 47) (measurement M6): 0.5676
Th-T assay plate reading, mean of three wells (Supplementary Fig. 47) (measurement M7): 0.5832
Th-T assay plate reading, mean of three wells (Supplementary Fig. 47) (measurement M8): 0.6497
Th-T assay plate reading, mean of three wells (Supplementary Fig. 47) (measurement M9): 0.6755
Th-T assay plate reading, mean of three wells (Supplementary Fig. 47) (measurement M10): 0.7219
Th-T assay plate reading, mean of three wells (Supplementary Fig. 47) (measurement M11): 0.7495
Th-T assay plate reading, mean of three wells (Supplementary Fig. 47) (measurement M12): 0.7862
Th-T assay plate reading, mean of three wells (Supplementary Fig. 47) (measurement M13): 0.8322
Th-T assay plate reading, mean of three wells (Supplementary Fig. 47) (measurement M14): 0.8734
Th-T assay plate reading, mean of three wells (Supplementary Fig. 47) (measurement M15): 0.9399
Th-T assay plate reading, mean of three wells (Supplementary Fig. 47) (measurement M16): 1.015
Th-T fluorescence, mean of three wells (reading M17, Supplementary Fig. 47 source data): 1.1695
Th-T fluorescence, mean of three wells (reading M18, Supplementary Fig. 47 source data): 1.449
Th-T fluorescence, mean of three wells (reading M19, Supplementary Fig. 47 source data): 1.7884
Th-T fluorescence, mean of three wells (reading M20, Supplementary Fig. 47 source data): 2.128
Th-T fluorescence, mean of three wells (reading M21, Supplementary Fig. 47 source data): 2.459
Th-T fluorescence, mean of three wells (reading M22, Supplementary Fig. 47 source data): 2.644
Th-T fluorescence, mean of three wells (reading M23, Supplementary Fig. 47 source data): 2.778
Th-T fluorescence, mean of three wells (reading M24, Supplementary Fig. 47 source data): 2.868
Th-T fluorescence, mean of three wells (reading M25, Supplementary Fig. 47 source data): 2.94
Th-T fluorescence, mean of three wells (reading M26, Supplementary Fig. 47 source data): 3.016
Th-T fluorescence, mean of three wells (reading M27, Supplementary Fig. 47 source data): 3.079
Th-T fluorescence, mean of three wells (reading M28, Supplementary Fig. 47 source data): 3.14
Th-T fluorescence, mean of three wells (reading M29, Supplementary Fig. 47 source data): 3.171
Th-T fluorescence, mean of three wells (reading M30, Supplementary Fig. 47 source data): 3.2173
Th-T fluorescence, mean of three wells (reading M31, Supplementary Fig. 47 source data): 3.256
Th-T fluorescence, mean of three wells (reading M32, Supplementary Fig. 47 source data): 3.313
Th-T fluorescence, mean of three wells (reading M33, Supplementary Fig. 47 source data): 3.3097
Th-T fluorescence, mean of three wells (reading M34, Supplementary Fig. 47 source data): 3.333
Th-T fluorescence, mean of three wells (reading M35, Supplementary Fig. 47 source data): 3.364
Th-T fluorescence, mean of three wells (reading M36, Supplementary Fig. 47 source data): 3.374
Th-T fluorescence, mean of three wells (time course, reading M57): 3.606
Th-T fluorescence, mean of three wells (time course, reading M58): 3.638
Th-T fluorescence, mean of three wells (time course, reading M59): 3.598
Th-T fluorescence, mean of three wells (time course, reading M60): 3.6035
Th-T fluorescence, mean of three wells (time course, reading M61): 3.616
Th-T fluorescence, mean of three wells (time course, reading M62): 3.642
Th-T fluorescence, mean of three wells (time course, reading M63): 3.645
Th-T fluorescence, mean of three wells (time course, reading M64): 3.635
Th-T fluorescence, mean of three wells (time course, reading M65): 3.622
Th-T fluorescence, mean of three wells (time course, reading M66): 3.629
Th-T fluorescence, mean of three wells (time course, reading M67): 3.626
Th-T fluorescence, mean of three wells (time-course reading M97, Supplementary Fig. 47 source data): 3.5997
Th-T fluorescence, mean of three wells (time-course reading M98, Supplementary Fig. 47 source data): 3.623
Th-T fluorescence, mean of three wells (time-course reading M99, Supplementary Fig. 47 source data): 3.625
Th-T fluorescence, mean of three wells (time-course reading M100, Supplementary Fig. 47 source data): 3.601
Th-T fluorescence, mean of three wells (time-course reading M101, Supplementary Fig. 47 source data): 3.5892
Th-T fluorescence, mean of three wells (time-course reading M102, Supplementary Fig. 47 source data): 3.633
Th-T fluorescence, mean of three wells (time-course reading M103, Supplementary Fig. 47 source data): 3.645
Th-T fluorescence, mean of three wells (time-course reading M104, Supplementary Fig. 47 source data): 3.661
Th-T fluorescence, mean of three wells (time-course reading M105, Supplementary Fig. 47 source data): 3.626
Th-T fluorescence, mean of three wells (time-course reading M106, Supplementary Fig. 47 source data): 3.655
Th-T fluorescence, mean of three wells (time-course reading M107, Supplementary Fig. 47 source data): 3.608
Th-T fluorescence, mean of three wells (time-course reading M108, Supplementary Fig. 47 source data): 3.642
Th-T fluorescence, mean of three wells (time-course reading M109, Supplementary Fig. 47 source data): 3.6107
Th-T fluorescence, mean of three wells (time-course reading M110, Supplementary Fig. 47 source data): 3.642
Th-T fluorescence, mean of three wells (time-course reading M111, Supplementary Fig. 47 source data): 3.621
Th-T fluorescence, mean of three wells (time-course reading M112, Supplementary Fig. 47 source data): 3.604
Th-T fluorescence, mean of three wells (time-course reading M113, Supplementary Fig. 47 source data): 3.595
Th-T fluorescence, mean of three wells (time-course reading M114, Supplementary Fig. 47 source data): 3.63
Th-T fluorescence, mean of three wells (time-course reading M115, Supplementary Fig. 47 source data): 3.6287
Th-T fluorescence, mean of three wells (time-course reading M116, Supplementary Fig. 47 source data): 3.617
